Laboratory results taken from PubChem BioAssay AID248 (DTP/NCI, 2004).
Values joined by “and” are separate entries in the source; they are usually repeats but may differ in a detail not shown here. Equal values may be shown once. Inconclusive results and toxic doses are left out.

Tested on: L1210 leukemia ip in BDF1 mice, survival T/C
Experiment: NCI In Vivo Anticancer Drug Screen. Data for tumor model L1210 Leukemia (intraperitoneal) in B6D2F1 (BDF1) mice
Settings: higher = longer survival
In short: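 Antitumor effect is assessed in tumor-bearing animals. Survival in the compound arm is compared with a vehicle-dosed control arm and expressed as their quotient.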

CCN(CC)CCNc1ccc(CO)c2sc3ccccc3c(=O)c12
T/C (endpoint: mean survival time, dose: 8.0 mg/kg/injection, schedule: Q01DX009 (ip), vehicle: clinical formulation): 108 % of control | T/C (endpoint: mean survival time, dose: 8.0 mg/kg/injection, schedule: Q01DX009 (ip), vehicle: water): 106 % of control | T/C (endpoint: mean survival time, dose: 16.0 mg/kg/injection, schedule: Q01DX009 (ip), vehicle: clinical formulation): 112 % of control | T/C (endpoint: mean survival time, dose: 16.0 mg/kg/injection, schedule: Q01DX009 (ip), vehicle: water): 92 % of control | T/C (endpoint: mean survival time, dose: 18.75 mg/kg/injection, schedule: Q01DX009 (ip), vehicle: saline): 118 % of control | T/C (endpoint: mean survival time, dose: 22.0 mg/kg/injection, schedule: Q01DX009 (ip), vehicle: saline): 115 % of control | T/C (endpoint: mean survival time, dose: 32.0 mg/kg/injection, schedule: Q01DX009 (ip), vehicle: clinical formulation): 121 % of control | T/C (endpoint: mean survival time, dose: 32.0 mg/kg/injection, schedule: Q01DX009 (ip), vehicle: water): 117 % of control | T/C (endpoint: mean survival time, dose: 35.0 mg/kg/injection, schedule: Q01DX009 (ip), vehicle: saline): 123 % of control | T/C (endpoint: mean survival time, dose: 50.0 mg/kg/injection, schedule: Q04DX003 (ip), vehicle: saline): 90 % of control | T/C (endpoint: mean survival time, dose: 64.0 mg/kg/injection, schedule: Q01DX009 (ip), vehicle: clinical formulation): 164 % of control | T/C (endpoint: mean survival time, dose: 64.0 mg/kg/injection, schedule: Q01DX009 (ip), vehicle: water): 157 % of control | T/C (endpoint: mean survival time, dose: 81.0 mg/kg/injection, schedule: Q01DX009 (ip), vehicle: Klucel (hydroxypropylcellulose) (HPC)): 120 % of control | T/C (endpoint: mean survival time, dose: 100.0 mg/kg/injection, schedule: Q01DX001 (ip), vehicle: saline): 102 % of control | T/C (endpoint: mean survival time, dose: 100.0 mg/kg/injection, schedule: Q04DX003 (ip), vehicle: saline): 106 % of control | T/C (endpoint: mean survival time, dose: 112.0 mg/kg/injection, schedule: Q01DX009 (ip), vehicle: saline): 98 % of control and 105 % of control | T/C (endpoint: mean survival time, dose: 122.0 mg/kg/injection, schedule: Q01DX009 (ip), vehicle: Klucel (hydroxypropylcellulose) (HPC)): 112 % of control | T/C (endpoint: mean survival time, dose: 128.0 mg/kg/injection, schedule: Q01DX009 (ip), vehicle: clinical formulation): 91 % of control | T/C (endpoint: mean survival time, dose: 128.0 mg/kg/injection, schedule: Q01DX009 (ip), vehicle: water): 110 % of control | T/C (endpoint: mean survival time, dose: 150.0 mg/kg/injection, schedule: Q01DX009 (ip), vehicle: saline): 93 % of control | T/C (endpoint: mean survival time, dose: 200.0 mg/kg/injection, schedule: Q01DX001 (ip), vehicle: saline): 110 % of control | T/C (endpoint: mean survival time, dose: 200.0 mg/kg/injection, schedule: Q01DX009 (ip), vehicle: Klucel (hydroxypropylcellulose) (HPC)): 120 % of control | T/C (endpoint: mean survival time, dose: 200.0 mg/kg/injection, schedule: Q04DX003 (ip), vehicle: saline): 173 % of control | T/C (endpoint: mean survival time, dose: 264.0 mg/kg/injection, schedule: Q01DX001 (ip), vehicle: carboxymethylcellulose (CMC)): 112 % of control | T/C (endpoint: mean survival time, dose: 264.0 mg/kg/injection, schedule: Q01DX009 (ip), vehicle: carboxymethylcellulose (CMC)): 124 % of control | T/C (endpoint: mean survival time, dose: 300.0 mg/kg/injection, schedule: Q04DX003 (ip), vehicle: saline): 184 % of control | T/C (endpoint: mean survival time, dose: 400.0 mg/kg/injection, schedule: Q01DX001 (ip), vehicle: carboxymethylcellulose (CMC)): 157 % of control | T/C (endpoint: median survival time, dose: 4.0 mg/kg/injection, schedule: Q01DX009 (ip), vehicle: saline): 90 % of control | T/C (endpoint: median survival time, dose: 4.0 mg/kg/injection, schedule: Q03HX016 (ip), vehicle: saline): 100 % of control | T/C (endpoint: median survival time, dose: 4.0 mg/kg/injection, schedule: Q03HX024 (ip), vehicle: saline): 100 % of control | T/C (endpoint: median survival time, dose: 8.0 mg/kg/injection, schedule: Q01DX009 (ip), vehicle: saline): 100 % of control | T/C (endpoint: median survival time, dose: 8.0 mg/kg/injection, schedule: Q03HX008 (ip), vehicle: saline): 100 % of control | T/C (endpoint: median survival time, dose: 8.0 mg/kg/injection, schedule: Q03HX016 (ip), vehicle: saline): 100 % of control | T/C (endpoint: median survival time, dose: 8.0 mg/kg/injection, schedule: Q03HX024 (ip), vehicle: saline): 105 % of control | T/C (endpoint: median survival time, dose: 16.0 mg/kg/injection, schedule: Q01DX009 (ip), vehicle: saline): 110 % of control | T/C (endpoint: median survival time, dose: 16.0 mg/kg/injection, schedule: Q01DX009 (sc), vehicle: saline): 100 % of control | T/C (endpoint: median survival time, dose: 16.0 mg/kg/injection, schedule: Q03HX008 (ip), vehicle: saline): 110 % of control | T/C (endpoint: median survival time, dose: 16.0 mg/kg/injection, schedule: Q03HX016 (ip), vehicle: saline): 100 % of control | T/C (endpoint: median survival time, dose: 32.0 mg/kg/injection, schedule: Q01DX001 (ip), vehicle: saline): 100 % of control | T/C (endpoint: median survival time, dose: 32.0 mg/kg/injection, schedule: Q01DX009 (oral), vehicle: saline): 100 % of control and 120 % of control | T/C (endpoint: median survival time, dose: 32.0 mg/kg/injection, schedule: Q01DX009 (sc), vehicle: saline): 115 % of control | T/C (endpoint: median survival time, dose: 32.0 mg/kg/injection, schedule: Q04DX003 (ip), vehicle: saline): 100 % of control | T/C (endpoint: median survival time, dose: 32.0 mg/kg/injection, schedule: Q08DX002 (ip), vehicle: saline): 100 % of control | T/C (endpoint: median survival time, dose: 64.0 mg/kg/injection, schedule: Q01DX001 (ip), vehicle: saline): 100 % of control | T/C (endpoint: median survival time, dose: 64.0 mg/kg/injection, schedule: Q01DX001 (sc), vehicle: saline): 100 % of control | T/C (endpoint: median survival time, dose: 64.0 mg/kg/injection, schedule: Q01DX009 (oral), vehicle: saline): 115 % of control | T/C (endpoint: median survival time, dose: 64.0 mg/kg/injection, schedule: Q04DX003 (ip), vehicle: saline): 110 % of control | T/C (endpoint: median survival time, dose: 64.0 mg/kg/injection, schedule: Q08DX002 (ip), vehicle: saline): 100 % of control | T/C (endpoint: median survival time, dose: 128.0 mg/kg/injection, schedule: Q01DX001 (ip), vehicle: saline): 110 % of control | T/C (endpoint: median survival time, dose: 128.0 mg/kg/injection, schedule: Q01DX001 (sc), vehicle: saline): 105 % of control | T/C (endpoint: median survival time, dose: 128.0 mg/kg/injection, schedule: Q01DX009 (oral), vehicle: saline): 120 % of control | T/C (endpoint: median survival time, dose: 128.0 mg/kg/injection, schedule: Q01DX009 (sc), vehicle: saline): 95 % of control | T/C (endpoint: median survival time, dose: 256.0 mg/kg/injection, schedule: Q01DX001 (oral), vehicle: saline): 110 % of control and 120 % of control | T/C (endpoint: median survival time, dose: 256.0 mg/kg/injection, schedule: Q01DX009 (oral), vehicle: saline): 100 % of control | T/C (endpoint: median survival time, dose: 512.0 mg/kg/injection, schedule: Q01DX001 (oral), vehicle: saline): 110 % of control and 120 % of control
